Reference: patent US6914045B2, “Glycopeptide antibiotics” (Wyeth Holdings Corporation, priority 2001, dated 2005)
Converted amounts (≈) assume the structure as drawn.

Legend:
Experiment in all cases: in vitro antibacterial evaluation, MIC by broth dilution
Format in all cases: cell-based
Staphylococcus sp. = conditions: broth dilution, 18 hours at 35° C.
Outline: (§1)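 Read-out: the lowest concentration at which the test strain fails to grow. Serial dilutions (64-0.06 μg/mL) in Muller-Hinton II […], 5×10^5 CFU/mL inoculum, NCCLS M7-A2 procedure.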

Streptococcus sp. = conditions: broth dilution, 18 hours at 35° C.
Outline: as §1

Enterococcus sp. = conditions: broth dilution, 18 hours at 35° C.
Outline: as §1

Escherichia coli = conditions: 18 hours at 35° C.

- MIC Coagulase Negative Staphylococcus (GC 4547) (Staphylococcus sp.): 2 µg/mL (≈ 1.31 µM)
- MIC Coagulase Negative Staphylococcus (GC 4548) (Staphylococcus sp.): 1 µg/mL (≈ 0.657 µM)
- MIC Coagulase Negative Staphylococcus (GC 4549) (Staphylococcus sp.): 1 µg/mL (≈ 0.657 µM)
- MIC Coagulase Negative Staphylococcus (GC 4551) (Staphylococcus sp.): 2 µg/mL (≈ 1.31 µM)
- MIC Coagulase Negative Staphylococcus (GC 6257) (Staphylococcus sp.): 1 µg/mL (≈ 0.657 µM)
- MIC Staphylococcus aureus (ATCC 29213) (Staphylococcus sp.): 2 µg/mL (≈ 1.31 µM)
- MIC Staphylococcus aureus (GC 1131) (Staphylococcus sp.): 2 µg/mL (≈ 1.31 µM)
- MIC Staphylococcus aureus (GC 3051) (Staphylococcus sp.): 1 µg/mL (≈ 0.657 µM)
- MIC Staphylococcus aureus (GC 3053) (Staphylococcus sp.): 2 µg/mL (≈ 1.31 µM)
- MIC Staphylococcus aureus (GC 4541) (Staphylococcus sp.): 4 µg/mL (≈ 2.63 µM)
- MIC Staphylococcus aureus (GC 4542) (Staphylococcus sp.): 2 µg/mL (≈ 1.31 µM)
- MIC Staphylococcus aureus (GC 4544) (Staphylococcus sp.): 2 µg/mL (≈ 1.31 µM)
- MIC Staphylococcus aureus (GC 4545) (Staphylococcus sp.): 2 µg/mL (≈ 1.31 µM)
- MIC Staphylococcus aureus-SMITH (GC 4543) (Staphylococcus sp.): 2 µg/mL (≈ 1.31 µM)
- MIC Staphylococcus aureus (ATCC 29213) (Staphylococcus sp.; strain ATCC 29213): 2 µg/mL (≈ 1.31 µM)
- MIC Staphylococcus aureus (GC 1131) (Staphylococcus sp.; strain GC 1131): 2 µg/mL (≈ 1.31 µM)
- MIC Staphylococcus aureus (GC 3051) (Staphylococcus sp.; strain GC 3051): 1 µg/mL (≈ 0.657 µM)
- MIC Staphylococcus aureus (GC 3053) (Staphylococcus sp.; strain GC 3053): 2 µg/mL (≈ 1.31 µM)
- MIC Staphylococcus aureus (GC 4541) (Staphylococcus sp.; strain GC 4541): 4 µg/mL (≈ 2.63 µM)
- MIC Staphylococcus aureus (GC 4542) (Staphylococcus sp.; strain GC 4542): 2 µg/mL (≈ 1.31 µM)
- MIC Staphylococcus aureus-SMITH (GC 4543) (Staphylococcus sp.; strain GC 4543): 2 µg/mL (≈ 1.31 µM)
- MIC Staphylococcus aureus (GC 4544) (Staphylococcus sp.; strain GC 4544): 2 µg/mL (≈ 1.31 µM)
- MIC Staphylococcus aureus (GC 4545) (Staphylococcus sp.; strain GC 4545): 2 µg/mL (≈ 1.31 µM)
- MIC Coagulase Negative Staphylococcus (GC 4547) (Staphylococcus sp.; strain GC 4547): 2 µg/mL (≈ 1.31 µM)
- MIC Coagulase Negative Staphylococcus (GC 4548) (Staphylococcus sp.; strain GC 4548): 1 µg/mL (≈ 0.657 µM)
- MIC Coagulase Negative Staphylococcus (GC 4549) (Staphylococcus sp.; strain GC 4549): 1 µg/mL (≈ 0.657 µM)
- MIC Coagulase Negative Staphylococcus (GC 4551) (Staphylococcus sp.; strain GC 4551): 2 µg/mL (≈ 1.31 µM)
- MIC Coagulase Negative Staphylococcus (GC 6257) (Staphylococcus sp.; strain GC 6257): 1 µg/mL (≈ 0.657 µM)
- MIC Streptococcus agalactiae (GC 4564) (Streptococcus sp.): 0.25 µg/mL (≈ 0.164 µM)
- MIC Streptococcus pneumoniae (ATCC 6301) (Streptococcus sp.): <0.06 µg/mL
- MIC Streptococcus pneumoniae (GC 1894) (Streptococcus sp.): <0.06 µg/mL
- MIC Streptococcus pneumoniae (GC 4565) (Streptococcus sp.): <0.06 µg/mL
- MIC Streptococcus pyogenes (GC 4563) (Streptococcus sp.): 0.25 µg/mL (≈ 0.164 µM)
- MIC Streptococcus pneumoniae (ATCC 6301) (Streptococcus sp.; inoculum 5×10^5 CFU/mL, strain ATCC 6301): <0.06 µg/mL
- MIC Streptococcus pneumoniae (GC 1894) (Streptococcus sp.; inoculum 5×10^5 CFU/mL, strain GC 1894): <0.06 µg/mL
- MIC Streptococcus pyogenes (GC 4563) (Streptococcus sp.; inoculum 5×10^5 CFU/mL, strain GC 4563): 0.25 µg/mL (≈ 0.164 µM)
- MIC Streptococcus agalactiae (GC 4564) (Streptococcus sp.; inoculum 5×10^5 CFU/mL, strain GC 4564): 0.25 µg/mL (≈ 0.164 µM)
- MIC Streptococcus pneumoniae (GC 4565) (Streptococcus sp.; inoculum 5×10^5 CFU/mL, strain GC 4565): <0.06 µg/mL
- MIC Enterococcus avium (GC 4558) (Enterococcus sp.): 4 µg/mL (≈ 2.63 µM)
- MIC Enterococcus faecalis (ATCC 29212) (Enterococcus sp.): 4 µg/mL (≈ 2.63 µM)
- MIC Enterococcus faecalis (GC 2242) (Enterococcus sp.): 4 µg/mL (≈ 2.63 µM)
- MIC Enterococcus faecalis (GC 2691) (Enterococcus sp.): 4 µg/mL (≈ 2.63 µM)
- MIC Enterococcus faecalis (GC 3059) (Enterococcus sp.): 4 µg/mL (≈ 2.63 µM)
- MIC Enterococcus faecalis (GC 4552) (Enterococcus sp.): 4 µg/mL (≈ 2.63 µM)
- MIC Enterococcus faecalis (GC 4553) (Enterococcus sp.): 4 µg/mL (≈ 2.63 µM)
- MIC Enterococcus faecalis (GC 4554) (Enterococcus sp.): 4 µg/mL (≈ 2.63 µM)
- MIC Enterococcus faecalis (GC 6189) (Enterococcus sp.): 4 µg/mL (≈ 2.63 µM)
- MIC Enterococcus faecium (GC 2243) (Enterococcus sp.): 4 µg/mL (≈ 2.63 µM)
- MIC Enterococcus faecium (GC 4556) (Enterococcus sp.): 4 µg/mL (≈ 2.63 µM)
- MIC Enterococcus faecium (GC 4557) (Enterococcus sp.): 2 µg/mL (≈ 1.31 µM)
- MIC Enterococcus faecalis (ATCC 29212) (Enterococcus sp.; strain ATCC 29212): 4 µg/mL (≈ 2.63 µM)
- MIC Enterococcus faecium (GC 2243) (Enterococcus sp.; strain GC 2243): 4 µg/mL (≈ 2.63 µM)
- MIC Enterococcus faecalis (GC 4552) (Enterococcus sp.; strain GC 4552): 4 µg/mL (≈ 2.63 µM)
- MIC Enterococcus faecalis (GC 4553) (Enterococcus sp.; strain GC 4553): 4 µg/mL (≈ 2.63 µM)
- MIC Enterococcus faecalis (GC 4554) (Enterococcus sp.; strain GC 4554): 4 µg/mL (≈ 2.63 µM)
- MIC Enterococcus faecium (GC 4556) (Enterococcus sp.; strain GC 4556): 4 µg/mL (≈ 2.63 µM)
- MIC Enterococcus faecium (GC 4557) (Enterococcus sp.; strain GC 4557): 2 µg/mL (≈ 1.31 µM)
- MIC Enterococcus avium (GC 4558) (Enterococcus sp.; strain GC 4558): 4 µg/mL (≈ 2.63 µM)
- MIC Enterococcus faecalis (GC 6189) (Enterococcus sp.; strain GC 6189): 4 µg/mL (≈ 2.63 µM)
- MIC Enterococcus faecalis (GC 2242) (Enterococcus sp.; inoculum 5×10^5 CFU/mL, strain GC 2242): 4 µg/mL (≈ 2.63 µM)
- MIC Enterococcus faecalis (GC 2691) (Enterococcus sp.; inoculum 5×10^5 CFU/mL, strain GC 2691): 4 µg/mL (≈ 2.63 µM)
- MIC Enterococcus faecalis (GC 3059) (Enterococcus sp.; inoculum 5×10^5 CFU/mL, strain GC 3059): 4 µg/mL (≈ 2.63 µM)
- MIC Escherichia coli (ATCC 25922) (Escherichia coli): >64 µg/mL
- MIC Escherichia coli (GC 4559) (Escherichia coli): >64 µg/mL
- MIC Escherichia coli (GC 4560) (Escherichia coli): 1 µg/mL (≈ 0.657 µM)
SMILES: COc1ccc(COCC2OC(OC3C(CO)OC(Oc4ccc(CC5NC(=O)C(C(C)c6ccccc6)NC(=O)CNC(=O)C(CO)NC(=O)C(C(O)C6CNC(=N)N6C6OC(CO)C(O)C(O)C6O)NC(=O)C(C(O)C6CNC(=N)N6)NC5=O)cc4)C(O)C3O)C(O)C(O)C2O)cc1OCc1ccccc1 (stereo not shown) [Example 239]
- MIC Staphylococcus haemolyticus (GC 4546) (Staphylococcus sp.): 1 µg/mL (≈ 0.657 µM)
- MIC Staphylococcus haemolyticus (GC 4546) (Staphylococcus sp.; strain GC 4546): 1 µg/mL (≈ 0.657 µM)
